Experimental data published in PubChem BioAssay (NCI).
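Interpolation was linear, between the two tested concentrations surrounding the appropriate level; five concentrations were tested over 48 hours in 96-well plates. TGI marks complete inhibition of growth.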

Tests used:
Test in all cases: NCI-60 cell line screen, 48 h
IGROV1 ovarian = test system: IGROV1 ovarian
HCT-15 colon = test system: HCT-15 colon
MCF7 breast = test system: MCF7 breast
NCI-H226 lung = test system: NCI-H226 lung
MDA-N = test system: MDA-N
MDA-MB-435 = test system: MDA-MB-435
A549 NSCLC = test system: A549 NSCLC
EKVX NSCLC = test system: EKVX NSCLC
SK-MEL-5 melanoma = test system: SK-MEL-5 melanoma
UACC-257 melanoma = test system: UACC-257 melanoma
OVCAR-3 ovarian = test system: OVCAR-3 ovarian
HL-60(TB) leukemia = test system: HL-60(TB) leukemia
M14 melanoma = test system: M14 melanoma
U251 CNS = test system: U251 CNS
UACC-62 melanoma = test system: UACC-62 melanoma
RXF 393 renal = test system: RXF 393 renal
MOLT-4 leukemia = test system: MOLT-4 leukemia
UO-31 renal = test system: UO-31 renal
RPMI-8226 leukemia = test system: RPMI-8226 leukemia
PC-3 prostate = test system: PC-3 prostate
COLO 205 colon = test system: COLO 205 colon
K-562 leukemia = test system: K-562 leukemia
HCT-116 colon = test system: HCT-116 colon
NCI-H23 lung = test system: NCI-H23 lung
SNB-75 CNS = test system: SNB-75 CNS
KM12 colon = test system: KM12 colon
NCI-H460 lung = test system: NCI-H460 lung
BT-549 breast = test system: BT-549 breast
SK-OV-3 ovarian = test system: SK-OV-3 ovarian
HS 578T breast = test system: HS 578T breast
MDA-MB-231 breast = test system: MDA-MB-231 breast
OVCAR-4 ovarian = test system: OVCAR-4 ovarian
NCI/ADR-RES ovarian = test system: NCI/ADR-RES ovarian
LOX IMVI melanoma = test system: LOX IMVI melanoma
A498 renal = test system: A498 renal
SK-MEL-28 melanoma = test system: SK-MEL-28 melanoma
HOP-62 NSCLC = test system: HOP-62 NSCLC
CAKI-1 renal = test system: CAKI-1 renal
OVCAR-8 ovarian = test system: OVCAR-8 ovarian
SK-MEL-2 melanoma = test system: SK-MEL-2 melanoma
DU-145 prostate = test system: DU-145 prostate
OVCAR-5 ovarian = test system: OVCAR-5 ovarian
SNB-19 CNS = test system: SNB-19 CNS
TK-10 renal = test system: TK-10 renal
MALME-3M melanoma = test system: MALME-3M melanoma
HT29 colon = test system: HT29 colon
SW-620 colon = test system: SW-620 colon
HOP-92 NSCLC = test system: HOP-92 NSCLC
NCI-H522 lung = test system: NCI-H522 lung
SF-539 CNS = test system: SF-539 CNS
SR leukemia = test system: SR leukemia
SN12C renal = test system: SN12C renal
786-0 renal = test system: 786-0 renal
SF-268 CNS = test system: SF-268 CNS
SF-295 CNS = test system: SF-295 CNS
ACHN renal = test system: ACHN renal
T-47D breast = test system: T-47D breast
HCC-2998 colon = test system: HCC-2998 colon
CCRF-CEM leukemia = test system: CCRF-CEM leukemia

Compound: NCCNCC(O)CO (stereo unspecified)
- TGI (IGROV1 ovarian): > 100 µM
- TGI (HCT-15 colon): > 100 µM
- TGI (MCF7 breast): > 100 µM
- TGI (NCI-H226 lung): > 100 µM
- TGI (MDA-N): > 100 µM
- TGI (MDA-MB-435): > 100 µM
- TGI (A549 NSCLC): > 100 µM
- TGI (EKVX NSCLC): > 100 µM
- TGI (SK-MEL-5 melanoma): > 100 µM
- TGI (UACC-257 melanoma): > 100 µM
- TGI (OVCAR-3 ovarian): > 100 µM
- TGI (HL-60(TB) leukemia): > 100 µM
- TGI (M14 melanoma): > 100 µM
- TGI (U251 CNS): > 100 µM
- TGI (UACC-62 melanoma): > 100 µM
- TGI (RXF 393 renal): > 100 µM
- TGI (MOLT-4 leukemia): > 100 µM
- TGI (UO-31 renal): > 100 µM
- TGI (RPMI-8226 leukemia): > 100 µM
- TGI (PC-3 prostate): > 100 µM
- TGI (COLO 205 colon): > 100 µM
- TGI (K-562 leukemia): > 100 µM
- TGI (HCT-116 colon): > 100 µM
- TGI (NCI-H23 lung): > 100 µM
- TGI (SNB-75 CNS): > 100 µM
- TGI (KM12 colon): > 100 µM
- TGI (NCI-H460 lung): > 100 µM
- TGI (BT-549 breast): > 100 µM
- TGI (SK-OV-3 ovarian): > 100 µM
- TGI (HS 578T breast): > 100 µM
- TGI (MDA-MB-231 breast): > 100 µM
- TGI (OVCAR-4 ovarian): > 100 µM
- TGI (NCI/ADR-RES ovarian): > 100 µM
- TGI (LOX IMVI melanoma): > 100 µM
- TGI (A498 renal): > 100 µM
- TGI (SK-MEL-28 melanoma): > 100 µM
- TGI (HOP-62 NSCLC): > 100 µM
- TGI (CAKI-1 renal): > 100 µM
- TGI (OVCAR-8 ovarian): > 100 µM
- TGI (SK-MEL-2 melanoma): > 100 µM
- TGI (DU-145 prostate): > 100 µM
- TGI (OVCAR-5 ovarian): > 100 µM
- TGI (SNB-19 CNS): > 100 µM
- TGI (TK-10 renal): > 100 µM
- TGI (MALME-3M melanoma): > 100 µM
- TGI (HT29 colon): > 100 µM
- TGI (SW-620 colon): > 100 µM
- TGI (HOP-92 NSCLC): > 100 µM
- TGI (NCI-H522 lung): > 100 µM
- TGI (SF-539 CNS): > 100 µM
- TGI (SR leukemia): > 100 µM
- TGI (SN12C renal): > 100 µM
- TGI (786-0 renal): > 100 µM
- TGI (SF-268 CNS): > 100 µM
- TGI (SF-295 CNS): > 100 µM
- TGI (ACHN renal): > 100 µM
- TGI (T-47D breast): > 100 µM

Compound: COc1ccc(C(=O)N2CCN(c3ccc4c(c3)OCC(=O)N4)CC2)cc1
- TGI (IGROV1 ovarian): > 100 µM
- TGI (HCT-15 colon): > 100 µM
- TGI (MCF7 breast): > 100 µM
- TGI (NCI-H226 lung): > 100 µM
- TGI (MDA-N): > 100 µM
- TGI (MDA-MB-435): > 100 µM
- TGI (A549 NSCLC): > 100 µM
- TGI (EKVX NSCLC): > 100 µM
- TGI (SK-MEL-5 melanoma): > 100 µM
- TGI (UACC-257 melanoma): > 100 µM
- TGI (OVCAR-3 ovarian): > 100 µM
- TGI (HL-60(TB) leukemia): > 100 µM
- TGI (M14 melanoma): > 100 µM
- TGI (U251 CNS): > 100 µM
- TGI (UACC-62 melanoma): > 100 µM
- TGI (MOLT-4 leukemia): > 100 µM
- TGI (UO-31 renal): > 100 µM
- TGI (RPMI-8226 leukemia): > 100 µM
- TGI (PC-3 prostate): > 100 µM
- TGI (COLO 205 colon): > 100 µM
- TGI (HCT-116 colon): > 100 µM
- TGI (NCI-H23 lung): > 100 µM
- TGI (SNB-75 CNS): > 100 µM
- TGI (KM12 colon): > 100 µM
- TGI (NCI-H460 lung): > 100 µM
- TGI (BT-549 breast): > 100 µM
- TGI (SK-OV-3 ovarian): > 100 µM
- TGI (HS 578T breast): > 100 µM
- TGI (MDA-MB-231 breast): > 100 µM
- TGI (HCC-2998 colon): > 100 µM
- TGI (OVCAR-4 ovarian): > 100 µM
- TGI (NCI/ADR-RES ovarian): > 100 µM
- TGI (LOX IMVI melanoma): > 100 µM
- TGI (SK-MEL-28 melanoma): > 100 µM
- TGI (HOP-62 NSCLC): > 100 µM
- TGI (CAKI-1 renal): > 100 µM
- TGI (OVCAR-8 ovarian): > 100 µM
- TGI (SK-MEL-2 melanoma): > 100 µM
- TGI (DU-145 prostate): > 100 µM
- TGI (OVCAR-5 ovarian): > 100 µM
- TGI (SNB-19 CNS): > 100 µM
- TGI (TK-10 renal): > 100 µM
- TGI (MALME-3M melanoma): > 100 µM
- TGI (HT29 colon): > 100 µM
- TGI (SW-620 colon): > 100 µM
- TGI (CCRF-CEM leukemia): > 100 µM
- TGI (HOP-92 NSCLC): > 100 µM
- TGI (NCI-H522 lung): > 100 µM
- TGI (SF-539 CNS): > 100 µM
- TGI (SR leukemia): > 100 µM
- TGI (SN12C renal): > 100 µM
- TGI (786-0 renal): > 100 µM
- TGI (SF-268 CNS): > 100 µM
- TGI (SF-295 CNS): > 100 µM
- TGI (ACHN renal): > 100 µM
- TGI (T-47D breast): > 100 µM

Compound: C=C1C(=O)OC2/C=C(\C)C(O)CC(O)C(C)(O)CC(OC(=O)/C(C)=C/C)C12 (stereo unspecified)
- TGI (IGROV1 ovarian): > 100 µM
- TGI (HCT-15 colon): > 100 µM
- TGI (MCF7 breast): > 100 µM
- TGI (NCI-H226 lung): > 100 µM
- TGI (MDA-N): > 100 µM
- TGI (MDA-MB-435): > 100 µM
- TGI (A549 NSCLC): > 100 µM
- TGI (EKVX NSCLC): > 100 µM
- TGI (SK-MEL-5 melanoma): > 100 µM
- TGI (UACC-257 melanoma): > 100 µM
- TGI (OVCAR-3 ovarian): > 100 µM
- TGI (HL-60(TB) leukemia): > 82.8 µM
- TGI (M14 melanoma): > 100 µM
- TGI (U251 CNS): > 100 µM
- TGI (UACC-62 melanoma): > 100 µM
- TGI (RXF 393 renal): > 100 µM
- TGI (MOLT-4 leukemia): > 100 µM
- TGI (UO-31 renal): > 100 µM
- TGI (RPMI-8226 leukemia): 74.2 µM
- TGI (PC-3 prostate): > 100 µM
- TGI (COLO 205 colon): > 100 µM
- TGI (K-562 leukemia): > 100 µM
- TGI (HCT-116 colon): > 100 µM
- TGI (NCI-H23 lung): > 100 µM
- TGI (SNB-75 CNS): > 94.2 µM
- TGI (KM12 colon): > 75.8 µM
- TGI (NCI-H460 lung): > 100 µM
- TGI (BT-549 breast): 83.9 µM
- TGI (SK-OV-3 ovarian): > 100 µM
- TGI (HS 578T breast): > 100 µM
- TGI (MDA-MB-231 breast): > 100 µM
- TGI (HCC-2998 colon): > 100 µM
- TGI (OVCAR-4 ovarian): > 100 µM
- TGI (LOX IMVI melanoma): > 100 µM
- TGI (A498 renal): > 84.3 µM
- TGI (SK-MEL-28 melanoma): > 100 µM
- TGI (HOP-62 NSCLC): > 100 µM
- TGI (CAKI-1 renal): > 100 µM
- TGI (OVCAR-8 ovarian): > 100 µM
- TGI (SK-MEL-2 melanoma): > 100 µM
- TGI (DU-145 prostate): > 100 µM
- TGI (OVCAR-5 ovarian): > 100 µM
- TGI (SNB-19 CNS): > 100 µM
- TGI (TK-10 renal): > 100 µM
- TGI (MALME-3M melanoma): > 100 µM
- TGI (HT29 colon): > 100 µM
- TGI (SW-620 colon): > 100 µM
- TGI (CCRF-CEM leukemia): > 82.8 µM
- TGI (HOP-92 NSCLC): 99.8 µM
- TGI (NCI-H522 lung): > 100 µM
- TGI (SF-539 CNS): > 100 µM
- TGI (SR leukemia): > 55.9 µM
- TGI (SN12C renal): > 100 µM
- TGI (786-0 renal): > 100 µM
- TGI (SF-268 CNS): > 100 µM
- TGI (SF-295 CNS): > 100 µM
- TGI (ACHN renal): > 100 µM
- TGI (T-47D breast): > 100 µM
